Measurements taken from patent US11180504B2 (ORCHID PHARMA LTD., priority 2016, dated 2021).
Values after ≈ are worked out from the molar mass of the structure shown. Like-named read-outs stand apart in the source and are kept apart here.

Experiments:
[1] = tested on: methicillin-sensitive Staphylococcus aureus; assay: MIC by broth micro-dilution (CLSI), methicillin-sensitive S. aureus; type: cell-based; details: MSSA S. aureus ATCC29213
[2] = tested on: carbapenem sensitive Escherichia coli; assay: MIC by broth micro-dilution (CLSI), carbapenem sensitive E. coli; type: cell-based
[3] = tested on: carbapenemase producing K. pneumoniae; assay: MIC by broth micro-dilution (CLSI), carbapenemase producing K. pneumoniae; type: cell-based, Klebsiella pneumoniae
[4] = tested on: carbapenem sensitive Pseudomonas aeruginosa; assay: MIC by broth micro-dilution (CLSI), carbapenem sensitive P. aeruginosa; type: cell-based
[5] = Staphylococcus aureus, ATCC 29213 / MSSA, read-out: MIC
[6] = Escherichia coli, ATCC25922, ESBL −ve E. coli ATCC25922, read-out: MIC
[7] = Klebsiella pneumoniae, ATCCBAA1705, KPC-2 K. pneumoniae ATCC BAA-1705, read-out: MIC
[8] = Pseudomonas aeruginosa, ATCC27853, Meropenem susceptible P. aeruginosa ATCC27853, read-out: MIC
[9] = KPC-2 K. pneumoniae ATCC BAA-1705
[10] = Meropenem susceptible P. aeruginosa ATCC27853

Compound	MIC [1, 5]	MIC [2, 6]	MIC [3, 7]	MIC [4, 8]	MIC [1]	MIC ([2]; ESBL −ve E. coli ATCC25922)	MIC [3, 9]	MIC [4, 10]	MIC ([1]; Staphylococcus aureus, ATCC29213|MSSA, read-out: MIC)
C[C@@H](NC(=O)Cn1cnnn1)[C@H]1C(=O)N2C(C(=O)O)=C(S[C@@H]3CN[C@H](C(=O)N4CC(N)C(N)C4)C3)[C@H](C)[C@H]12 (stereo partly drawn) [Example 413, (4R,5S,6R)-6-((R)-1-(2-(1H-tetrazol-1-yl)acetamido)ethyl)-3-((3S,5S)-5-(3,4-diaminopyrrolidine-1-carbonyl)pyrrolidin-3-ylthio)-4-methyl-7-oxo-1-azabicyclo[3.2.0]hept-2-ene-2-carboxylic acid]	2 µg/mL (≈ 3.65 µM)	0.25 µg/mL (≈ 0.456 µM)	2 µg/mL (≈ 3.65 µM)	2 µg/mL (≈ 3.65 µM)	–	–	–	–	–
C[C@@H](NC(=O)Cn1cnnn1)[C@H]1C(=O)N2C(C(=O)O)=C(S[C@@H]3CN[C@H](CNS(N)(=O)=O)C3)[C@H](C)[C@H]12 [Example 305, (4R,5S,6R)-6-((R) - 1-(2-(1H-tetrazol-1-yl)acetamido)ethyl)-4-methyl-7-oxo-3-((3S,5S)-5-((sulfamoylamino)methyl)pyrrolidin-3-ylthio)-1-azabicyclo[3.2.0]hept-2-ene-2-carboxylic acid]	2 µg/mL (≈ 3.78 µM)	0.25 µg/mL (≈ 0.472 µM)	1 µg/mL (≈ 1.89 µM)	8 µg/mL (≈ 15.1 µM)	–	–	–	–	–
C[C@@H](NC(=O)Cn1nc(C(F)(F)F)nc1N)[C@H]1C(=O)N2C(C(=O)O)=C(S[C@@H]3CN[C@H](C(=O)N4CC[C@@H](N)C4)C3)[C@H](C)[C@H]12 [Example 317, (4R,5S,6R)-6-((R) - 1-(2-(5-amino-3-(trifluoromethyl) - 1H-1,2,4-triazol-1-yl)acetamido)ethyl)-3-((3S,5S)-5-((R)-3-aminopyrrolidine-1-carbonyl)pyrolidin-3-ylthio)-4-methyl-7-oxo-1-azabicyclo[3.2.0]hept-2-ene-2-carboxylic acid]	2 µg/mL (≈ 3.25 µM)	0.5 µg/mL (≈ 0.812 µM)	8 µg/mL (≈ 13 µM)	128 µg/mL (≈ 208 µM)	–	–	–	–	–
C[C@@H](NC(=O)C(F)F)[C@H]1C(=O)N2C(C(=O)O)=C(SC3CN(C4=NCCS4)C3)[C@H](C)[C@H]12 [Example 263]	0.25 µg/mL (≈ 0.543 µM)	0.25 µg/mL (≈ 0.543 µM)	2 µg/mL (≈ 4.34 µM)	128 µg/mL (≈ 278 µM)	–	–	–	–	–
C[C@@H](NC(=O)Cn1cnnn1)[C@H]1C(=O)N2C(C(=O)O)=C(S[C@@H]3CN[C@H](C(=O)N4CC[N+](C)(CCN)CC4)C3)[C@H](C)[C@H]12.[I-] [Example 375, 4-((2S,4S)-4-((4R,5S,6R)-6-((R)-1-(2-(1H-tetrazol-1-yl)acetamido)ethyl)-2-carboxy-4-methyl-7-oxo-1-azabicyclo[3.2.0]hept-2-en-3-ylthio)pyrrolidine-2-carbonyl)-1-(2-aminoethyl)-1-methylpiperazin-1-ium iodide]	16 µg/mL	2 µg/mL	8 µg/mL	4 µg/mL	–	–	–	–	–
C[C@@H](NC(=O)Cn1cnnn1)[C@H]1C(=O)N2C(C(=O)O)=C(S[C@@H]3CN[C@H](C(=O)N4C[C@@H](O)C[C@H]4CN)C3)[C@H](C)[C@H]12 [Example 470, (4R,5S,6R)-6-((R)-1-(2-(1H-tetrazol-1-yl)acetamido)ethyl)-3-((3S,5S)-5-((2S,4S)-2-(aminomethyl)-4-hydroxypyrrolidine-1-carbonyl)pyrrolidin-3-ylthio)-4-methyl-7-oxo-1-azabicyclo[3.2.0]hept-2-ene-2-carboxylic acid]	4 µg/mL (≈ 7.1 µM)	0.5 µg/mL (≈ 0.887 µM)	2 µg/mL (≈ 3.55 µM)	4 µg/mL (≈ 7.1 µM)	–	–	–	–	–
C[C@@H](NC(=O)CSC(F)F)[C@H]1C(=O)N2C(C(=O)O)=C(S[C@@H]3CN[C@H](C(=O)N4CC[C@@H](N)C4)C3)[C@H](C)[C@H]12 [Example 507, (4R,5S,6R)-3-((3S,5S)-5-((R)-3-aminopyrrolidine-1-carbonyl)pyrrolidin-3-ylthio)-6-((R)-1-(2-(difluoromethylthio)acetamido)ethyl)-4-methyl-7-oxo-1-azabicyclo[3.2.0]hept-2-ene-2-carboxylic acid]	2 µg/mL (≈ 3.65 µM)	1 µg/mL (≈ 1.83 µM)	8 µg/mL (≈ 14.6 µM)	64 µg/mL (≈ 117 µM)	–	–	–	–	–
C[C@@H](NC(=O)Cn1cnnn1)[C@H]1C(=O)N2C(C(=O)O)=C(S[C@@H]3CN[C@H](C(=O)N4CC5CCCNC5C4)C3)[C@H](C)[C@H]12 (single isomer, unassigned) [Example 452]	2 µg/mL (≈ 3.49 µM)	0.25 µg/mL (≈ 0.436 µM)	1 µg/mL (≈ 1.74 µM)	2 µg/mL (≈ 3.49 µM)	–	–	–	–	–
C[C@@H](NC(=O)Cn1cnnn1)[C@H]1C(=O)N2C(C(=O)O)=C(S[C@@H]3CN[C@H](C(=O)N4CCC(N)(CC#N)CC4)C3)[C@H](C)[C@H]12 [Example 371, (4R,5S,6R)-6-((R)-1-(2-(1H-tetrazol-1-yl)acetamido)ethyl)-3-((3S,5S)-5-(4-amino-4-(cyanomethyl)piperidine-1-carbonyl)pyrrolidin-3-ylthio)-4-methyl-7-oxo-1-azabicyclo[3.2.0]hept-2-ene-2-carboxylic acid]	16 µg/mL (≈ 27.3 µM)	1 µg/mL (≈ 1.7 µM)	4 µg/mL (≈ 6.82 µM)	64 µg/mL (≈ 109 µM)	–	–	–	–	–
C[C@@H](NC(=O)Cn1cnnn1)[C@H]1C(=O)N2C(C(=O)O)=C(S[C@@H]3CN[C@H](C(=O)N4CCC5(CNC5)C4)C3)[C@H](C)[C@H]12 [Example 502, (4R,5S,6R)-6-((R)-1-(2-(1H-tetrazol-1-yl)acetamido)ethyl)-3-((3S,5S)-5-(2,6-diazaspiro[3.4]octane-6-carbonyl)pyrrolidin-3-ylthio)-4-methyl-7-oxo-1-azabicyclo[3.2.0]hept-2-ene-2-carboxylic acid]	4 µg/mL (≈ 7.15 µM)	0.25 µg/mL (≈ 0.447 µM)	1 µg/mL (≈ 1.79 µM)	2 µg/mL (≈ 3.57 µM)	–	–	–	–	–
C[C@@H](NC(=O)[C@@H]1CS(=O)(=O)CN1)[C@H]1C(=O)N2C(C(=O)O)=C(S[C@@H]3CN[C@H](C(=O)N4CC[C@@H](N)C4)C3)[C@H](C)[C@H]12 [Example 280]	64 µg/mL (≈ 112 µM)	8 µg/mL (≈ 14 µM)	8 µg/mL (≈ 14 µM)	16 µg/mL (≈ 28 µM)	–	–	–	–	–
CNCC(=O)N[C@H](C)[C@H]1C(=O)N2C(C(=O)O)=C(S[C@@H]3CN[C@H](C(=O)N4CCC(N)(Cc5ccccc5)CC4)C3)[C@H](C)[C@H]12 [Example 275]	64 µg/mL (≈ 107 µM)	16 µg/mL (≈ 26.7 µM)	64 µg/mL (≈ 107 µM)	> 128 µg/mL	–	–	–	–	–
C[C@@H](NC(=O)Cn1cnnn1)[C@H]1C(=O)N2C(C(=O)O)=C(S[C@@H]3CN[C@H](C(=O)N4CCC(N)(CO)C4)C3)[C@H](C)[C@H]12 (single isomer, unassigned) [Example 497]	–	–	–	–	4 µg/mL (≈ 7.1 µM)	0.25 µg/mL (≈ 0.444 µM)	2 µg/mL (≈ 3.55 µM)	4 µg/mL (≈ 7.1 µM)	–

Now from value to molecule:

MIC [1, 5]	MIC [2, 6]	MIC [3, 7]	MIC [4, 8]	MIC [1]	MIC ([2]; ESBL −ve E. coli ATCC25922)	MIC [3, 9]	MIC [4, 10]	MIC ([1]; Staphylococcus aureus, ATCC29213|MSSA, read-out: MIC)	Compound
4 µg/mL (≈ 7.3 µM)	0.25 µg/mL (≈ 0.457 µM)	1 µg/mL (≈ 1.83 µM)	16 µg/mL (≈ 29.2 µM)	–	–	–	–	–	C[C@@H](NC(=O)Cn1cnnn1)[C@H]1C(=O)N2C(C(=O)O)=C(S[C@@H]3CN[C@H](C(=O)NC[C@@H]4CCNC4)C3)[C@H](C)[C@H]12 [Example 513, (4R,5S,6R)-6-((R)-1-(2-(1H-tetrazol-1-yl)acetamido)ethyl)-4-methyl-7-oxo-3-((3S,5S)-5-((R)-pyrrolidin-3-ylmethylcarbamoyl)pyrrolidin-3-ylthio)-1-azabicyclo[3.2.0]hept-2-ene-2-carboxylic acid]
4 µg/mL (≈ 7.76 µM)	4 µg/mL (≈ 7.76 µM)	32 µg/mL (≈ 62.1 µM)	32 µg/mL (≈ 62.1 µM)	–	–	–	–	–	C[C@@H](NC(=O)Cn1cnnn1)[C@H]1C(=O)N2C(C(=O)[O-])=C(Sc3cn(C[C@@H]4CCNC4)[n+](C)c3)[C@H](C)[C@H]12 [Example 597, (4R,5S,6R)-6-((R)-1-(2-(1H-tetrazol-1-yl)acetamido)ethyl)-4-methyl-3-(2-methyl-1-((R)-pyrrolidin-3-ylmethyl)-1H-pyrazol-2-ium-4-ylthio)-7-oxo-1-azabicyclo[3.2.0]hept-2-ene-2-carboxylate]
–	–	–	–	1 µg/mL (≈ 1.66 µM)	0.125 µg/mL (≈ 0.208 µM)	1 µg/mL (≈ 1.66 µM)	2 µg/mL (≈ 3.32 µM)	–	C[C@@H](NC(=O)Cn1cnnn1)[C@H]1C(=O)N2C(C(=O)O)=C(S[C@@H]3CN[C@H](C(=O)N4CC5CCN(C(=N)N)C5C4)C3)[C@H](C)[C@H]12 (single isomer, unassigned) [Example 570]
–	1 µg/mL (≈ 1.66 µM)	2 µg/mL (≈ 3.32 µM)	–	–	–	–	16 µg/mL (≈ 26.6 µM)	8 µg/mL (≈ 13.3 µM)	C[C@@H](NC(=O)Cn1cnnn1)[C@H]1C(=O)N2C(C(=O)[O-])=C(S[C@@H]3CN[C@H](C(=O)N4CCC5C[N+](C)(C)CCC54)C3)[C@H](C)[C@H]12 (stereo partly shown) [Example 598]
2 µg/mL (≈ 3.55 µM)	0.25 µg/mL (≈ 0.444 µM)	1 µg/mL (≈ 1.77 µM)	1 µg/mL (≈ 1.77 µM)	–	–	–	–	–	C[C@@H](NC(=O)Cn1cnnn1)[C@H]1C(=O)N2C(C(=O)O)=C(S[C@@H]3CN[C@H](C(=O)N4C[C@@H](CO)[C@H](N)C4)C3)[C@H](C)[C@H]12 [Example 584, (4R,5S,6R)-6-((R)-1-(2-(1H-tetrazol-1-yl)acetamido)ethyl)-3-((3S,5S)-5-((3S,4R)-3-amino-4-(hydroxymethyl)pyrrolidine-1-carbonyl)pyrrolidin-3-ylthio)-4-methyl-7-oxo-1-azabicyclo[3.2.0]hept-2-ene-2-carboxylic acid]
1 µg/mL (≈ 1.69 µM)	0.25 µg/mL (≈ 0.423 µM)	0.5 µg/mL (≈ 0.845 µM)	1 µg/mL (≈ 1.69 µM)	–	–	–	–	–	C[C@@H](NC(=O)Cn1cnnn1)[C@H]1C(=O)N2C(C(=O)O)=C(S[C@@H]3CN[C@H](C(=O)N4C[C@@H](O)[C@H](NC(=N)N)C4)C3)[C@H](C)[C@H]12 [Example 544, (4R,5S,6R)-6-((R)-1-(2-(1H-tetrazol-1-yl)acetamido)ethyl)-3-((3S,5S)-5-((3R,4R)-3-guanidino-4-hydroxypyrrolidine-1-carbonyl)pyrrolidin-3-ylthio)-4-methyl-7-oxo-1-azabicyclo[3.2.0]hept-2-ene-2-carboxylic acid]
